Assay results as given in patent publication US20030129224A1, “Lipid carrier compositions and methods for improved drug retention” (priority 2001, published 2003).
One block for each compound: values may come before it.

Legend:
[1] = Daunorubicin retention in liposomes in blood after intravenous injection (time course); type: in vivo, Balb/c mice; conditions: low-cholesterol liposomes DSPC/DSPE-PEG2000 (95:5); citrate 600 mOsm/kg (300 mM) in relation to 300 mOsm/kg (150 mM); i.v.; 1, 4, 24 h
Description: DSPC/DSPE-PEG2000 liposomes (95:5 mole ratio) containing 150 or 300 mM citrate (300 or 600 mOsm/kg), pH 4 and DSPC/Cholesterol (55:45 mole ratio) and DSPC/Cholesterol/DSPE-PEG2000 (50:45:5 mole ratio) liposomes containing 150 mM citrate, pH 4 were prepared as described in Example 1. Liposomes were subsequently combined with daunorubicin at a 0.2:1 drug to lipid mole ratio. To facilitate drug loading, the mixtures were incubated at 40° C. for 60 minutes.
The resulting daunorubicin-containing liposomes were administered to Balb/c female mice at a lipid dose of 165 μmoles/kg as detailed above. Blood samples were removed at 1, 4 and 24 hours post administration by cardiac puncture (3 mice per time point). Lipid levels were determined by liquid scintillation counting. Daunorubicin was extracted from plasma samples and quantified as follows: a defined volume of plasma was adjusted to 200 μL with distilled water followed by addition of 600 μL of distilled water, 100 μL of 10% SDS and 100 μL of 10 mM H2SO4. This solution was mixed and 2 mLs of 1:1 isopropanol/chloroform was added followed by vortexing. […] The bottom organic layer was removed and assayed for fluorescence intensity at 500 nm as the excitation wavelength (2.5 nm bandpass) and 550 nm as an emission wavelength (10 nm bandpass) and using an absorbance wavelength of 480 nm.

[2] = Daunorubicin retention 4 hours after intravenous injection, varying internal citrate; type: in vivo, Balb/c mice; conditions: DSPC/DSPE-PEG2000 (95:5); 100, 150 and 200 mM internal citrate (about 200, 300, 400 mOsm/kg), versus 250 and 300 mM; 4 hours after i.v.
Description: Daunorubicin was loaded at a 0.2:1 drug-to-lipid mole ratio with the methods detailed above into each of the five liposomal formulations. The resulting liposomes were administered to female Balb/c mice at a lipid dose of 165 μmoles/kg in a final volume of 200 μL immediately after preparation (within 1-2 hrs). Blood samples were removed 4 hours after administration by cardiac puncture (3 mice per time point). Lipid and daunorubicin levels were determined as described previously and percent initial drug-to-lipid ratio was reported as the mean±SD.

[3] = Idarubicin retention in liposomes in blood after intravenous injection; type: in vivo, Balb/c mice; conditions: cholesterol-free DSPC/DSPE-PEG2000 (95:5); 300 mM citrate (>500 mOsm/kg) in relation to 100 and 150 mM (<500 mOsm/kg); i.v.; 0.5-24 h
Description: DSPC/DSPE-PEG2000 (95:5 mole ratio) liposomes containing the non-exchangeable marker ^3H-CHE were prepared as described in Example 1, except that lipid films were hydrated with 100, 150, 200, 250 or 300 mM citrate, pH 4.0 (corresponding to osmolarity levels of about 200, 300, 400, 500 or 600 mOsm/kg, respectively).
DSPC/DSPE-PEG2000 (95:5 mole ratio) liposomes prepared with 100, 150 and 300 mM citrate were also loaded with idarubicin at a drug to lipid mole ratio of 0.25:1. Loading was facilitated by incubating the drug and liposomes at 37° C. for 60 minutes. Liposomes were administered to Balb/c mice as indicated and blood samples were removed by cardiac puncture at 0.5, 1, 2, 4 and 24-hours post administration (3 mice per time point). Idarubicin concentration was quantitated using fluorescence intensity at 485 nm as the excitation wavelength and 535 nm as an emission wavelength and using an absorbance wavelength of 482 nm.

[4] = Freeze/thaw stability of DSPC/DSPG liposomes (drug-to-lipid ratio and size) at -20 or -70 C for 24 hours; type: physicochemical; conditions: 0-20 mole % cholesterol, 250 mM CuSO4 internal, frozen at -20 C and -70 C for 24 hours
Description: FUDR and irinotecan were loaded into cholesterol-free liposomes containing a low osmolarity internal solution and drug retention and liposome size were measured prior to and after freezing. DSPC/DSPG liposomes containing 0-20 mole % cholesterol, 20 mole % DSPG and passively entrapped FUDR were prepared as described previously and hydrated in 250 mM CuSO4 (<500 mOsm/kg). The MLVs were extruded at 70° C. as detailed above and buffered exchanged into saline and then into 300 mM sucrose, 20 mM Hepes, 30 mM EDTA (SHE), pH 7.4 using a hand-held tangential flow column. The sample was then further exchanged into 300 mM sucrose, 20 mM Hepes, pH 7.4 to remove residual EDTA. The liposomes were subsequently loaded with irinotecan at a drug-to-lipid mole ratio of 0.1:1 by mixing the two solutions at 50° C. for five minutes. The dual-loaded liposomes were then buffered exchanged into HBS using tangential flow to remove any unencapsulated drug.
The influence of freezing on liposome stability was determined by freezing the liposomes at either −20° C. or −70° C. for 24 hours. […] Lipid and FUDR levels were quantified using liquid scintillation and absorbance at 370 nm was used to determine irinotecan concentration. Particle sizing of the liposomes was also determined prior to and after freezing using quasi-elastic light scattering.

[5] = Vincristine retention in liposomes in blood after intravenous injection of Balb/c mice; type: in vivo; conditions: i.v., 1, 4, 24 h
Description: Solutions of lipids in chloroform were combined to give a 95:5 molar ratio of DSPC/DSPE-PEG2000 or a 55:45 molar ratio of DSPC/Cholesterol, with trace amounts of ^14C-cholesteryl hexadecyl ether (^14C-CHE). The resulting mixtures were dried under a stream of nitrogen gas and placed in a vacuum pump overnight. The samples were hydrated at 70° C. with either 300 mM citrate, pH 4.0 (about 600 milliosmoles/kg (mOsm/kg)) or 150 mM citrate buffer, pH 4.0 (about 300 mOsm/kg) and passed through an extrusion apparatus (Northern Lipids Inc., Vancouver, BC) ten times with two 100 nm pore size polycarbonate filters at 70° C. Average liposome size was determined by quasi-elastic light scattering using a NICOMP 370 submicron particle sizer operating at a wavelength of 632.8 nm. The resulting liposomes were applied to a Sephadex G50 column equilibrated with HBS (20 mM HEPES, 150 mM NaCl, about 320 mOsm/kg), pH 7.45 to exchange the external liposomal buffer. […]
Vincristine-containing liposomes were administered intravenously to Balb/c mice at a lipid dose of 165 μmoles/kg in a final volume of 200 μL immediately after preparation (within 1-2 hrs). […] Lipid and vincristine levels were quantified by liquid scintillation counting and the values were reported as the mean±standard deviation (SD).

daunorubicin retention (percent initial daunorubicin-to-lipid ratio remaining in the blood) [1]: compromised
retention of daunorubicin (percent initial drug-to-lipid ratio in the blood) [2]: optimal retention
Structure (SMILES): COc1cccc2c1C(=O)c1c(O)c3c(c(O)c1C2=O)C[C@@](O)(C(C)=O)C[C@@H]3O[C@H]1C[C@H](N)[C@H](O)[C@H](C)O1 [daunorubicin]

idarubicin retention (idarubicin-to-lipid mole ratio in the blood) [3]: significantly decreased
Structure (SMILES): CC(=O)[C@]1(O)Cc2c(O)c3c(c(O)c2[C@@H](O[C@H]2C[C@H](N)[C@H](O)[C@H](C)O2)C1)C(=O)c1ccccc1C3=O [idarubicin]

retention of irinotecan after freezing (drug-to-lipid ratio) [4]: effectively retained
Structure (SMILES): CCc1c2c(nc3ccc(OC(=O)N4CCC(N5CCCCC5)CC4)cc13)-c1cc3c(c(=O)n1C2)COC(=O)[C@]3(O)CC [irinotecan]

retention of vincristine (percent initial vincristine-to-lipid weight ratio in the blood) ([5]; low-cholesterol liposomes DSPC/DSPE-PEG2000 (95:5), internal citrate 300 mOsm/kg (150 mM) compared to 600 mOsm/kg (300 mM)): significantly enhanced
Structure (SMILES): CC[C@]1(O)C[C@H]2CN(CCc3c([nH]c4ccccc34)[C@@](C(=O)OC)(c3cc4c(cc3OC)N(C=O)[C@H]3[C@@](O)(C(=O)OC)[C@H](OC(C)=O)[C@]5(CC)C=CCN6CC[C@]43[C@@H]65)C2)C1 [vincristine]
retention of vincristine (percent initial vincristine-to-lipid weight ratio in the blood) ([5]; cholesterol containing liposomes DSPC/cholesterol (55:45), 150 vs 300 mM citrate): independent of the osmolarity of the intraliposomal solution
